Like-named read-outs stand apart in the source and are kept apart here.
What was measured:
[1] = tested on: tMEK2^MUT-induced gene activation (PR1b1, PR3, Twi1, ER5); test: Effect of MAPK inhibitors on tMEK2^MUT-induced gene activation in tomato protoplasts; format: cell-based, Tomato (Lycopersicon esculentum cv Bonny Best); conditions: for effect on all four genes previously activated by tMEK2^MUT: inhibitor at 1 μM in protoplast incubation buffer, genes PR1b1, PR3, Twi1, ER5 (FIG. 6); for effect on tMEK2^MUT-activated PR3 and ER5 genes / effect on tMEK2^MUT-activated PRlbl or Twi1 genes: 350 nM for SB 202190, 1 μM for SB 203580 in protoplast incubation buffer (FIG. 6)
Method: Kinase inhibitors at the concentration of 1 μM for staurosporine, 350 nM for SB 202190 and 1 μM for PD 98059, SB 203580 and SB 202474 were included in the proteoplast incubation buffer.
The protoplasts were resuspended in electroporation buffer containing 150 mM MgCl2 and 0.4 M mannitol at a density of 1×10^6 protoplasts/ml and co-electroporated with […] of pTZ19 carrying tMEK2 gene and pJD300 carrying luciferase gene in a total volume of 500 μl as described by Leckie (1994) with some modifications. Electroporation was performed at 200 volts and 100 μF (Gene Pulser II, Bio-Rad). Protoplasts were then allowed to recover on ice in the dark for 10 min followed by centrifugation at 500 g for 5 min. After removal of the supernatant, the protoplast pellet, with about 500 μl of buffer, was supplemented with another 500 μl protoplast incubation buffer. Protoplasts were incubated in the dark at 30° C. for 24 hr.
(§1) Kinase inhibitors (CalBiochem, San Diego, Calif.) at the concentration of 1 μM for staurosporine, 350 nM for SB 202190 and 1 μM for PD 98059, SB 203580 and SB 202474, when applicable, were included in the protoplast incubation buffer.
RT-PCR was as described above. The number of PCR cycles corresponded to the high end of the range in which a linear increase in products could be detected (generally 14-16 cycles were used). Reaction products were separated on 1.0% agarose gels. Southern blot analysis was used to estimate levels of specific amplified products. Equivalence of cDNA in different samples was verified using PCR reactions for actin. Primers were designed for PCR according to published sequences for tomato PR-lbl, chitinase, Twit, ER5 and actin (Tornero et al., 1997; Danhash et al., 1993; O'Donnell et al., 1998; Zegzoutti et al. 1997; Moniz de Sa and Drouin, 1996).
To study divergence of the signal pathways downstream of tMEK2 the influence of […] expression in tomato protoplasts was examined in the presence of a broad protein kinase inhibitor (staurosporine) and inhibitors specific to the p38 class MAPK (SB 202190 or SB 203580). Staurosporine inhibited all four genes that were previously activated by tMEK2^MUT; whereas, inhibitors of p38 class MAPK inhibited the PR3 and ER5 genes but not PRlbl or Twi1. […] The results, shown in FIG. 6, are consistent with the divergence of signal pathway downstream of tMEK2. One of these pathways could include a p38 class MAPK.

[2] = tested on: tomato leaf mesophyll protoplasts; test: Protoplast viability in the presence of kinase inhibitors; format: cell-based, Tomato (Lycopersicon esculentum cv Bonny Best); conditions: 1 μM staurosporine, 350 nM SB 202190, 1 μM PD 98059, SB 203580 and SB 202474; data not shown
Method: as §1

[3] = tested on: myelin basic protein
[4] = molecular target: myelin basic protein; remark: listed apart in the source
[5] = tested on: ER5 gene; test: Tomato protoplast transient expression, quantitative RT-PCR of wound-inducible gene ER5; format: cell-based, Tomato (Lycopersicon esculentum cv Bonny Best); conditions: transient expression in tomato protoplasts, quantitative RT-PCR (FIG. 5b)
Method: Tomato (Lycopersicon esculentum cv Bonny Best) were grown at 80% relative humidity in peat soil in growth cabinets programmed for 16 hr days at 25° C. and 8 hr nights at 22° C. Light intensity was controlled at 25 pE m-2 S-1 emitted from “cool white” fluorescent lamps (Philip Canada, Scarborough, Ontario). The youngest fully expanded leaves were surface sterilized for 5 min in 4% sodium hypochlorite and rinsed three times with sterile water. The lower epidermis was gently rubbed with Carborundum, rinsed with sterile water and leaf fragments of ca. 1 cm^2 were floated with exposed surface facing an enzyme solution containing 0.15% macerozyme R10 (Yakult Honsha Co., Japan), 0.3% Cellulase “Onozuka” Rio (Yakult Honsha Co., Japan), 0.4 M sucrose in K3 medium (Maliga et. al., 1973). After overnight incubation at 30° C., the enzyme-protoplast mixture was filtered through a 100 μm nylon sieve, centrifuged at 500 g for 5 min. and floated protoplasts were collected and washed twice with W5 medium (Maliga et.al., 1973). The protoplasts were kept on ice in W5 medium for 2 hr before transformation. […]
(§2) RT-PCR was as described above. The number of PCR cycles corresponded to the high end of the range in which a linear increase in products could be detected (generally 14-16 cycles were used). […]

[6] = tested on: PR1b1, PR3 (chitinase) and Twi1 genes; test: Tomato protoplast transient expression, quantitative RT-PCR of pathogenesis-related genes; format: cell-based, Tomato (Lycopersicon esculentum cv Bonny Best); conditions: transient expression driven by tCUPΔ promoter after electroporation, 24 hr incubation, quantitative RT-PCR (FIG. 4)
From the text: To examine the effects of tMEK2^WT and tMEK2^MUT on the activation of pathogenesis-related (PR) or other pathogen-inducible genes a tomato protoplast transient expression system was developed. Chimeric genes, tCUPΔ-tMEK2^WT-nos and tCUPΔ-tMEK2^MUT-nos, were constructed using the storing constitutive promoter, tCUPΔ, which was derived from the tCUP promoter as by modification of the mRNA leader sequence described above. After electroporation, transient expression of potential target genes was detected by quantitative RT-PCR. The genes analysed included PRlbl, which is activated by tomato mosaic virus (Tornero et al., 1997); PR3 (chitinase), which is activated during an incompatible C. fulvam-tomato interaction (Danhash et al., 1993); and Twi, which is a pathogen- and would-inducible gene recently identified in tomato (O'Donnell, et al., 1998).
Tomato (Lycopersicon esculentum cv Bonny Best) were grown at 80% relative humidity in peat soil in growth cabinets programmed for 16 hr days at 25° C. and 8 hr nights at 22° C. Light intensity was controlled at 25 pE m-2 S-1 emitted from “cool white” fluorescent lamps (Philip Canada, Scarborough, Ontario). […]
as §2

Molecule: COc1cccc(-c2cc(=O)c3ccccc3o2)c1N [PD 98059]
- effect on all four genes previously activated by tMEK2^MUT [1]: no effects

Molecule: CCc1nc(-c2ccc(OC)cc2)[nH]c1-c1ccncc1 [SB202474]
- effect on all four genes previously activated by tMEK2^MUT [1]: no effects
- change of protoplast viability [2]: did not change

Molecule: Oc1ccc(-c2nc(-c3ccc(F)cc3)c(-c3ccncc3)[nH]2)cc1 [SB 202190]
- effect on tMEK2^MUT-activated PR3 and ER5 genes [1]: inhibited
- effect on tMEK2^MUT-activated PRlbl or Twi1 genes [1]: not

Molecule: C[S+]([O-])c1ccc(-c2nc(-c3ccc(F)cc3)c(-c3ccncc3)[nH]2)cc1 (centres unmarked) [SB 203580]
- effect on tMEK2^MUT-activated PR3 and ER5 genes [1]: inhibited
- effect on tMEK2^MUT-activated PRlbl or Twi1 genes [1]: not
- change of protoplast viability [2]: did not change

Molecule: CN[C@@H]1C[C@H]2O[C@@](C)([C@@H]1OC)n1c3ccccc3c3c4c(c5c6ccccc6n2c5c31)C(=O)NC4 [Staurosporine, staurosporine]
- effect on all four genes previously activated by tMEK2^MUT [1]: inhibited
- change of protoplast viability [2]: did not change

Molecule: GST-tMEK2^MUT (recombinant glutathione-S-transferase fusion of tMEK2 with serine221 and threonine226 replaced with aspartic acid)
- substrate phosphorylation (in vitro kinase assay, SDS-PAGE, autoradiography) [3]: Both the wild type and mutant forms of the tMEK2 enzyme phosphorylated myelin basic protein (MPB) in vitro

B1: GST-tMEK2^WT (recombinant glutathione-S-transferase fusion of wild type tomato cv. Bonny Best MAP kinase kinase tMEK2) (protein)
chain: MKKGSFAPNLKLSLPPPDEVALSKFLTESGTFKDGDLLVNRDGVRIVSQSEVAAPSVIQPSDNQLCLADFEAVKVIGKGNGGIVRLVQHKWTGQFFALKVIQMNIDESMRKHIAQELRINQSSQCPYVVICYQSFFDNGAISLILEYMDGGSLADFLKKVKTIPERFLAVICKQVLKGLWYLHHEKHIIHRDLKPSNLLINHRGDVKITDFGVSAVLASTSGLANTFVGTYNYMSPERISGGAYDYKSDIWSLGLVLLECATGHFPYKPPEGDEGWVNVYELMETIVDQPEPCAPPDQFSPQFCSFISACVQKHQKDRLSANDLMSHPFITMYDDQDIDLGSYFTSAGPPLATLTEL
- substrate phosphorylation (in vitro kinase assay, SDS-PAGE, autoradiography) [4]: Both the wild type and mutant forms of the tMEK2 enzyme phosphorylated myelin basic protein (MPB) in vitro

B2: tMEK2^WT: wild type MAPKK gene tMEK2 isolated from tomato cv. Bonny Best, expressed from tCUPΔ promoter (protein)
chain: B1 chain
modifications: left off: a dimerising Fc or GST
- activation of ER5 gene [5]: did not
- activation of tomato PRlbl, chitinase and Twil genes [6]: no effect

From patent US6376747B1, “Plant-derived map kinase kinase” (Her Majesty the Queen in right of Canada as represented by …, priority 1999, dated 2002)
